For data set [1], the system named is Plasmodium falciparum. As to the kind of experiment: NOVARTIS: Inhibition of Plasmodium falciparum W2 (drug-resistant) proliferation in erythrocyte-based infection assay. The data set is classed as functional, organism-based. Conditions: Plasmodium falciparum, W2; read-out: EC50.
Data set [2] has as its system Plasmodium falciparum. Nature of the data set: NOVARTIS: Inhibition of Plasmodium falciparum 3D7 (drug-susceptible) proliferation in erythrocyte-based infection assay. Conditions: Plasmodium falciparum, 3D7. The data set is classed as functional, organism-based.
Data set [3] in a line: NOVARTIS: Cytotoxicity against human hepatocellular carcinoma cell line (Huh7). Conditions: Huh7 cells (hepatocellular carcinoma cell line). The data set is classed as toxicity, cell-based, Huh-7.

Structures are written as SMILES.

The EC50 is the concentration that produces a half-maximal response. Usually CC50 stands for the concentration that lowers cell viability or growth by half. Lower therefore signals greater toxicity to the cells.

In the case of `COc1cc(C=C(C#N)c2nc3ccccc3[nH]2)ccc1OCc1ccccc1`, the concentration for a half-maximal effect (EC50) came to 1590 nM in data set [1] and 766 nM in data set [2]. The CC50 in data set [3] is above 100000 nM.

`O=[N+]([O-])c1ccc(C=NN2CCN(Cc3ccccc3Cl)CC2)cc1`: the results for the EC50 in data set [1] and in data set [2] were above 1590 nM and above 7220 nM, respectively. Further, in data set [3], the CC50 was above 100000 nM.

Consider `c1ccc(OCCOc2ccc(Nc3ccnc4cc5ccccc5cc34)cc2)cc1`, for which the EC50 was found to be 97.5 nM in data set [1] and 124 nM in data set [2]. The same compound gave a CC50 in data set [3] of 6110 nM.

As to `O=C(c1cc2n(n1)C(C(F)(F)F)CC(c1ccc3c(c1)OCO3)N2)N1CCN(C(c2ccccc2)c2ccccc2)CC1` (stereo not given), the EC50 in data set [1] turned out to be 1600 nM; in data set [2] it was 5260 nM. The compound further came in with a CC50 in data set [3] above 100000 nM.

For the compound `COc1cccc(CCOc2ccc3c(c2)C(=O)N(C(CC(C)C)C(=O)NC2CCN(Cc4ccccc4)CC2)[C@@H](Cc2ccc(O)cc2)C(=O)N3)c1` (stereo not given in full), the EC50 amounted to 158 nM in data set [1] and 502 nM in data set [2]. The same compound yielded a CC50 in data set [3] above 10000 nM.

Take `CCN(CC)c1nc(Nc2cc(C)ccc2C)nc(Nc2ccccc2O)n1`: the EC50 stood at 159 nM in data set [1] and 439 nM in data set [2]. This compound displayed a 50% cytotoxic concentration (CC50) in data set [3] above 10000 nM.

Consider `CC(C)NCC(O)Cn1c2ccc(Br)cc2c2cc(Br)ccc21` (stereo not given), for which the EC50 is 54.4 nM in data set [1] and 216 nM in data set [2]. The same compound showed a CC50 in data set [3] of 3360 nM.

For `Oc1c(C(Nc2ccccn2)c2ccc(Cl)cc2Cl)ccc2cccnc12` (stereo not given), the half-maximal effective concentration (EC50) in data set [1] is 160 nM; in data set [2], above 1300 nM. In addition, the CC50 in data set [3] was above 10000 nM.

Consider `CC(c1nc2ccccc2c(=O)n1-c1ccccc1Cl)N(Cc1ccccc1)C(=O)Nc1cccc(Br)c1` (stereo not given), for which the EC50 in data set [1] was above 159 nM; in data set [2], above 1250 nM. Further, the CC50 in data set [3] was above 10000 nM.

With `Cc1ccc2nc(C(C#N)=Cc3cn(Cc4ccc(Cl)cc4Cl)nc3-c3ccccc3)[nH]c2c1`, the EC50 was 1590 nM in data set [1] and 1820 nM in data set [2]. Further, in data set [3], the CC50 was above 100000 nM.

Turning to `CCCCCC(=O)NCCCCCCNc1ccnc2cc(Cl)ccc12`, the EC50 in data set [1] turned out to be 222 nM; in data set [2], 254 nM. The compound further came in with a CC50 in data set [3] above 13900 nM.

Turning to `COc1ccc(CCNc2ncnc3c2[nH]c2ccccc23)cc1`, the EC50 is 401 nM in data set [1] and 299 nM in data set [2]. In data set [3], this compound registered a CC50 of 24900 nM.

For `CCC(C)(C)c1ccc(OCCCC[n+]2ccc(C)cc2)c(C(C)(C)CC)c1`, the figures for the EC50 in data set [1] and in data set [2] were 193 nM and 532 nM, respectively. In data set [3], this compound showed a 50% cytotoxic concentration (CC50) of 12000 nM.

For the compound `CCOC(=O)c1cnc2c(ccc3ccccc32)c1Nc1ccc(NC(C)=O)cc1`, the EC50 in data set [1] came out at 1610 nM; in data set [2], 6900 nM. Besides, the CC50 in data set [3] is above 100000 nM.

With `COc1ccc(-n2cnc3cc(NCc4nc5ccccc5n4C)ccc32)cc1`, the figures for the EC50 in data set [1] and in data set [2] were 906 nM and 912 nM, respectively. The compound also returned a CC50 in data set [3] of 56800 nM.

For the compound `CCc1ccc2ncc(C(=O)OCCOC)c(O)c2c1`, the values for the EC50 in data set [1] and in data set [2] were 1620 nM and 777 nM, respectively. The same compound showed a CC50 in data set [3] above 100000 nM.

For `Cc1ccc(-c2c[n+](-c3ccccc3)c3n2CCCS3)cc1`, the half-maximal effective concentration (EC50) in data set [1] is 1640 nM; in data set [2], 735 nM. In data set [3], this compound returned a CC50 above 100000 nM.

With `CCC(C)C(=O)N1CCC(C(=O)Nc2ccc(-c3nc4ccccc4o3)cc2)CC1` (stereo not given), the EC50 in data set [1] is 1580 nM; in data set [2], 1860 nM. In data set [3], this compound registered a CC50 above 100000 nM.

In the case of `COc1ccc(-c2noc(CNC(=O)c3cccc(I)c3)n2)cc1`, the figures for the EC50 in data set [1] and in data set [2] were 1580 nM and above 12500 nM, respectively. This compound also returned a CC50 in data set [3] above 100000 nM.

On to `COC(=O)c1ccc(S(=O)(=O)N2CCC3(CC2)Nc2ccccc2-n2cccc23)cc1`, for which the concentration for a half-maximal effect (EC50) in data set [1] is above 163 nM; in data set [2], above 1250 nM. For the same compound, the CC50 in data set [3] was above 10000 nM.

With `Cc1nc(NCCCN(C)C)c2sc3nc4c(cc3c2n1)COC(C)(C)C4`, the EC50 in data set [1] is 1630 nM; in data set [2], above 12500 nM. The CC50 in data set [3] was above 100000 nM.

Regarding `Cc1sc2sc(-c3ccccc3)c(N)[n+]2c1C`, the EC50 was 1630 nM in data set [1] and 1050 nM in data set [2]. Further, the CC50 in data set [3] is above 100000 nM.

With `CCN(CC)CCNc1ncnc2c1[nH]c1ccc(Br)cc12`, the results for the EC50 in data set [1] and in data set [2] were 318 nM and 288 nM, respectively. In data set [3], this compound returned a CC50 of 19500 nM.

For `NCCNc1cc(-c2ccccc2)nc2ccccc12`, the EC50 in data set [1] was 375 nM; in data set [2], 318 nM. For the same compound, the CC50 in data set [3] came out at 23000 nM.

For the compound `O=c1c2ccccc2nc2n1CCN2Cc1ccc(Cl)cc1`, the EC50 stood at 1630 nM in data set [1] and 1610 nM in data set [2]. In data set [3], this compound showed a 50% cytotoxic concentration (CC50) above 100000 nM.

For the compound `COc1cccc(OC)c1C(=O)NCCCCNc1ccnc2cc(Cl)ccc12`, the EC50 in data set [1] was found to be 198 nM; in data set [2], 449 nM. The CC50 in data set [3] was above 12200 nM.

Turning to `Cc1cc2c(cc1C)-c1c(ssc1=Nc1cccc(C)c1C)C(C)(C)N2`, the half-maximal effective concentration (EC50) in data set [1] is 1620 nM; in data set [2], 8590 nM. This compound gave a CC50 in data set [3] above 100000 nM.

For `c1ccc2c(c1)[nH]c1c(NCCN3CCCCC3)ncnc12`, the figures for the EC50 in data set [1] and in data set [2] were 788 nM and 704 nM, respectively. In data set [3], this compound had a CC50 of 49900 nM.

Regarding `O=S(=O)(Nc1cc(Sc2nc[nH]n2)c(O)c2ccccc12)c1ccc(F)cc1`, the concentration giving a half-maximal response (EC50) in data set [1] was 323 nM; in data set [2], 1600 nM. The CC50 in data set [3] worked out at 20500 nM.

Regarding `Cc1nc2ccccc2c(=O)n1NC(=O)c1cccc([N+](=O)[O-])c1`, the results for the EC50 in data set [1] and in data set [2] were 1610 nM and 141 nM, respectively. Also, the CC50 in data set [3] was above 100000 nM.

With `COc1ccc(C2CC(c3cccs3)=NN2C(=O)CSc2nnc(CNC(=O)c3cccs3)n2-c2cccc(C)c2)cc1` (stereo not given), the EC50 in data set [1] is 1610 nM; in data set [2] it was 10400 nM. The compound also yielded a 50% cytotoxic concentration (CC50) in data set [3] above 100000 nM.

Consider `CCn1ccccc1=Nc1cccc[n+]1CC`, for which the concentration giving a half-maximal response (EC50) amounted to 1170 nM in data set [1] and 1500 nM in data set [2]. The compound also returned a CC50 in data set [3] above 73200 nM.

For the compound `COc1ccc(S(=O)(=O)ON=C2C=C(C(C)C)C(=O)C=C2C)cc1`, the EC50 in data set [1] was 296 nM; in data set [2], 834 nM. Moreover, the CC50 in data set [3] was 18300 nM.

In the case of `Cc1ccc(CNC(=O)c2cc3sc(Cl)cc3n2C)cc1`, the EC50 in data set [1] stood at 1590 nM; in data set [2], 3130 nM. The cytotoxic concentration (CC50) in data set [3] is above 100000 nM.

For `Cc1ccc(CNC(=O)CCCCCn2c(SCc3cccc([N+](=O)[O-])c3)nc3ccsc3c2=O)cc1`, the 50% effective concentration (EC50) in data set [1] turned out to be 1600 nM; in data set [2], 6280 nM. This compound showed a CC50 in data set [3] above 100000 nM.

As for `Cc1ccc2[nH]c3c(NCCN4CCCC4)ncnc3c2c1`, the EC50 in data set [1] turned out to be 737 nM; in data set [2], 514 nM. The compound further registered a CC50 in data set [3] of 46500 nM.

For `Cc1ccc(-c2cn3ccccc3[n+]2-c2ccccc2)cc1`, the 50% effective concentration (EC50) in data set [1] is 817 nM; in data set [2], 214 nM. Moreover, the CC50 in data set [3] came to 51700 nM.

In the case of `COc1cc(C2C(C(=O)OCCc3ccccc3)=C(C)NC3=C2C(=O)CC(c2ccc(Cl)cc2)C3)ccc1OCc1ccccc1` (stereo not given), the EC50 was found to be 1580 nM in data set [1] and 6940 nM in data set [2]. The compound also had a CC50 in data set [3] above 100000 nM.

Regarding `CC(C)CC(=O)N(C)CCCNc1ccnc2cc(Cl)ccc12`, the EC50 in data set [1] turned out to be 121 nM; in data set [2], 740 nM. This compound also gave a CC50 in data set [3] of 7440 nM.

Take `Cn1c(=O)c2c(nc3n2CC(O)CN3c2ccccc2)n(C)c1=O` (stereo not given): the results for the EC50 in data set [1] and in data set [2] were 162 nM and 72.6 nM, respectively. In data set [3], this compound had a CC50 above 10000 nM.

For the origin of these results see ChEMBL document CHEMBL1156829 (Proc Natl Acad Sci U S A, 2008).
